Test results taken from ChEMBL document CHEMBL1158894, “A new P-glycoprotein inhibitor from the caper spurge (Euphorbia lathyris)” (J Nat Prod, 2003).

Tests used:
[1] = molecular target: ATP-dependent translocase ABCB1 (Homo sapiens, UniProt P08183); assay: Inhibition of P-glycoprotein-mediated daunomycin transport in human K562/R7 cells assessed as accumulation at 5 uM; type: cell-based; design: scale not given: the % may be the effect or the level left; conditions: k562/r7, 5 µM
[2] = Inhibition of P-glycoprotein NBD2 domain assessed as quenching of intrinsic fluorescence at 60 uM; design: scale not given: the % may be the effect or the level left
[3] = Inhibition of P-glycoprotein NBD2 domain

Chain of ATP-dependent translocase ABCB1 (P08183 whole entry, the tested form may be a part): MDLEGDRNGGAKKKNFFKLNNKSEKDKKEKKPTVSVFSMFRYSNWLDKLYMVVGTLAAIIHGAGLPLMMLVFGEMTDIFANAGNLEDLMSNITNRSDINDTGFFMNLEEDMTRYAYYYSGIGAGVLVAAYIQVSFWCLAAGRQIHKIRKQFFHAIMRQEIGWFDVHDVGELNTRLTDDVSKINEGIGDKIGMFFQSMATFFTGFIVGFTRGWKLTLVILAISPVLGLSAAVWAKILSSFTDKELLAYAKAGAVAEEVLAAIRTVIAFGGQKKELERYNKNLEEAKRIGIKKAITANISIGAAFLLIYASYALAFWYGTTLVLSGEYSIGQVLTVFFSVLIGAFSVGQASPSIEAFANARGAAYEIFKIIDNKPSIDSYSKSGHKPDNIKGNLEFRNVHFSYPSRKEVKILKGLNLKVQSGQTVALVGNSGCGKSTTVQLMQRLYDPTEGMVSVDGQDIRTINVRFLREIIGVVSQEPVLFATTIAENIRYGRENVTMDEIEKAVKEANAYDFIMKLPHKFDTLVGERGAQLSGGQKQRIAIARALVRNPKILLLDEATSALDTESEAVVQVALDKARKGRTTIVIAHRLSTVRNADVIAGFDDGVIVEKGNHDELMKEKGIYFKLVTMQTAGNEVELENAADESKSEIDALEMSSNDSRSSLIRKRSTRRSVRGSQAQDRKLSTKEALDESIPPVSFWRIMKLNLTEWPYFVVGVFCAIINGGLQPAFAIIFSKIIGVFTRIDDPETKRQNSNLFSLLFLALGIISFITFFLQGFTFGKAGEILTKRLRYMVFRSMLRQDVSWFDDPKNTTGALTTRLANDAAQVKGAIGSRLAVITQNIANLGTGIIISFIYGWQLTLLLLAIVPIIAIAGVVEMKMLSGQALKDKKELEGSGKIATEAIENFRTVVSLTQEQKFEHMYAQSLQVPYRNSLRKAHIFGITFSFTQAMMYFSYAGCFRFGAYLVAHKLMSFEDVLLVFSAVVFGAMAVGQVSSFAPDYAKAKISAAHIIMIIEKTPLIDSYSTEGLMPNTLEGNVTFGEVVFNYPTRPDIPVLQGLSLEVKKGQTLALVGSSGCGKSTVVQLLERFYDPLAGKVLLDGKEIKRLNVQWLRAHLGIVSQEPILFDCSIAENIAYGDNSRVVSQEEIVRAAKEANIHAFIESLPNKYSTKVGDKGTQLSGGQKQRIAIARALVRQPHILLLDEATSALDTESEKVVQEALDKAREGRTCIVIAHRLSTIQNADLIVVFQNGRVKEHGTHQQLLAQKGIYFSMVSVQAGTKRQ

Row | Activity [1] | Activity [2] | Kd [3] | Compound
1 | 95% | 78.5% | 16.9 µM | CCCCCC(=O)O[C@H]1[C@@H](C)C[C@]2(OC(C)=O)C(=O)/C(C)=C/[C@@H]3[C@H](CC/C(CO)=C/[C@@H]12)C3(C)C
2 | 80% | 13.8% | – | CCCCCC(=O)O[C@H]1[C@@H](C)C[C@]2(OC(C)=O)C(=O)/C(C)=C/[C@@H]3[C@H](CC/C(COC(C)=O)=C/[C@@H]12)C3(C)C
